According to US7138361B2, “Herbicidal heterocycles” (E. I. du Pont de Nemours and Company, priority 2000, dated 2006):

Legend:
Type in all cases: in vivo
[1] = tested on: duck salad (Heteranthera limosa); test: Test C flooded paddy test; details: for Ducksalad plant response rating: Flooded Paddy, scale 0 to 100, 0 no effect, 100 complete control; for Plant response rating, Ducksalad: flooded paddy test, scale 0 to 100 (0 no effect, 100 complete control)
Method in brief: (§1)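 Plants were grown to the 2-leaf stage under flooded paddy conditions and treated. They were then kept in a greenhouse for 12 to 14 days and visually rated against untreated controls on a 0–100 scale, where 0 is no effect and 100 is complete control.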

[2] = tested on: barnyardgrass (Echinochloa crus-galli); test: Test C flooded paddy test; details: for Barnyardgrass plant response rating: Flooded Paddy, scale 0 to 100, 0 no effect, 100 complete control; for Plant response rating, Barnyardgrass: flooded paddy test, scale 0 to 100 (0 no effect, 100 complete control)
Method in brief: as §1

rice (Oryza saliva) = test: Test C flooded paddy test; details: for Rice plant response rating: Flooded Paddy, scale 0 to 100, 0 no effect, 100 complete control; for Plant response rating, Rice: flooded paddy test, scale 0 to 100 (0 no effect, 100 complete control)
Method in brief: as §1

[3] = tested on: smallflower flatsedge (Cyperus difformis); test: Test C flooded paddy test; details: for Flatsedge plant response rating: Flooded Paddy, scale 0 to 100, 0 no effect, 100 complete control; for Plant response rating, Flatsedge: flooded paddy test, scale 0 to 100 (0 no effect, 100 complete control)
Method in brief: as §1

[4] = tested on: wheat (Triticum aestivum); test: Test B postemergence
Method in brief: (§2)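 Pre: seeded pots sprayed, chemical in non-phytotoxic solvent/surfactant mix. Post: plants 2–18 cm, 1–4 leaf, same formulation. Greenhouse 13–15 d; visual % control vs untreated, 0–100 scale.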

[5] = tested on: barnyardgrass (Echinochloa crus-galli); test: Test B postemergence
Method in brief: as §2

wild oat (Avena fatua) = test: Test B postemergence
Method in brief: as §2

corn (Zea mays) [6] = test: Test B postemergence
Method in brief: as §2

[7] = tested on: woolly cupgrass (Eriochloa villosa); test: Test C preemergence; details: for Plant response rating (0 to 100), Cupgrass, Woolly: visual evaluation after 12 to 14 days
Method in brief: (§3)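 Test chemicals, formulated in a non-phytotoxic solvent mixture with surfactant, were applied preemergence to planted seeds or postemergence to plants 2 to 18 cm tall (1- to 4-leaf stage). After 12 to 14 days in a greenhouse, injury was visually rated against untreated controls on a 0–100 scale.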

[8] = tested on: yellow nutsedge (Cyperus esculentus); test: Test C preemergence; details: for Plant response rating (0 to 100), Nutsedge: visual evaluation after 12 to 14 days
Method in brief: as §3

kochia (Kochia scoparia) = test: Test C preemergence; details: for Plant response rating (0 to 100), Kochia: visual evaluation after 12 to 14 days
Method in brief: as §3

soybean (Glycine max) = test: Test C preemergence; details: for Plant response rating (0 to 100), Soybean: visual evaluation after 12 to 14 days
Method in brief: as §3

[9] = tested on: lambsquarters (Chenopodium album); test: Test C preemergence; details: for Plant response rating (0 to 100), Lambsquarters: visual evaluation after 12 to 14 days
Method in brief: as §3

Nightshade [10] = test: Test C preemergence
corn (Zea mays) [11] = test: Test C preemergence; details: for Plant response rating (0 to 100), Corn: visual evaluation after 12 to 14 days
Method in brief: as §3

[12] = tested on: johnsongrass (Sorghum halepense); test: Test C preemergence; details: for Plant response rating (0 to 100), Johnsongrass: visual evaluation after 12 to 14 days
Method in brief: as §3

[13] = tested on: pigweed (Amaranthus retroflexus); test: Test C preemergence; details: for Plant response rating (0 to 100), Pigweed: visual evaluation after 12 to 14 days
Method in brief: as §3

Sunflower = test: Test C preemergence; details: scale 0 to 100, 0 no effect, 100 complete control
Nightshade [14] = test: Test C preemergence; details: visual evaluation after 12 to 14 days
[15] = Rate 125 g/ha, scale 0 to 100, 0 no effect, 100 complete control
[16] = Rate 500 g/ha, scale 0 to 100, 0 is no effect, 100 is complete control, 13 to 15 days
[17] = preemergence, Rate 62 g/ha, scale 0 to 100
[18] = preemergence, Rate 250 g/ha, scale 0 to 100, 0 no effect, 100 complete control
[19] = Rate 125 g/ha, scale 0 (no effect) to 100 (complete control), 13 to 15 days
[20] = Rate 62 g/ha, scale 0 to 100, 0 no effect, 100 complete control
[21] = preemergence, Rate 31 g/ha, scale 0 to 100
[22] = preemergence, Rate 125 g/ha, scale 0 to 100, 0 no effect, 100 complete control

Compound: COc1cc(N2CCC(n3ccc(C(C)C)n3)C2=O)ccc1Cl (centres unmarked) [Compound 120]
- Ducksalad plant response rating ([1]; Rate 250 g/ha): 100
- Ducksalad plant response rating ([1]; Rate 500 g/ha): 100
- Plant response rating, Ducksalad ([1]; Rate 62 g/ha): 70
- Plant response rating, Ducksalad ([1]; Rate 125 g/ha): 100
- Barnyardgrass plant response rating ([2]; Rate 250 g/ha): 80
- Plant response rating, Barnyardgrass ([2]; Rate 62 g/ha): 20
- Plant response rating, Barnyardgrass ([2]; Rate 125 g/ha): 50
- Rice plant response rating (rice (Oryza saliva); Rate 250 g/ha): 30
- Rice plant response rating (rice (Oryza saliva); Rate 500 g/ha): 80
- Plant response rating, Rice (rice (Oryza saliva); Rate 62 g/ha): 0
- Plant response rating, Rice (rice (Oryza saliva); Rate 125 g/ha): 20
- Flatsedge plant response rating ([3]; Rate 250 g/ha): 100
- Flatsedge plant response rating ([3]; Rate 500 g/ha): 100
- Plant response rating, Flatsedge ([3]; Rate 62 g/ha): 90
- Plant response rating, Flatsedge ([3]; Rate 125 g/ha): 100
- Plant response rating, Wheat [4, 15]: 10
- Plant response rating, Barnyardgrass [5, 15]: 0
- Plant response rating, Barnyardgrass [5, 16]: 60
- Plant response rating, Wild Oat (wild oat (Avena fatua); [15]): 30
- Plant response rating, Corn (corn (Zea mays) [6]; [15]): 0
- Plant response rating, Corn (corn (Zea mays) [6]; [16]): 20
- Plant response rating, Cupgrass, Woolly [7, 15]: 100
- Plant response rating, Cupgrass, Woolly [7, 17]: 100
- Plant response rating (0 to 100), Cupgrass, Woolly ([7]; preemergence, Rate 500 g/ha): 100
- Plant response rating, Cupgrass, Woolly [7, 18]: 100
- Plant response rating, Nutsedge [8, 15]: 80
- Plant response rating, Nutsedge [8, 17]: 40
- Plant response rating (0 to 100), Nutsedge ([8]; preemergence, Rate 500 g/ha): 100
- Plant response rating, Nutsedge [8, 18]: 100
- Plant response rating, Kochia (kochia (Kochia scoparia); [15]): 100
- Plant response rating, Kochia (kochia (Kochia scoparia); [17]): 100
- Plant response rating (0 to 100), Kochia (kochia (Kochia scoparia); preemergence, Rate 500 g/ha): 100
- Plant response rating, Kochia (kochia (Kochia scoparia); [18]): 100
- Plant response rating, Soybean (soybean (Glycine max); [15]): 70
- Plant response rating, Soybean (soybean (Glycine max); [17]): 60
- Plant response rating (0 to 100), Soybean (soybean (Glycine max); preemergence, Rate 500 g/ha): 100
- Plant response rating, Soybean (soybean (Glycine max); [18]): 80
- Plant response rating, Lambsquarters [9, 15]: 100
- Plant response rating, Lambsquarters [9, 17]: 100
- Plant response rating (0 to 100), Lambsquarters ([9]; preemergence, Rate 500 g/ha): 100
- Plant response rating, Lambsquarters [9, 18]: 100
- Plant response rating, Nightshade (Nightshade [10]; Rate 62 g/ha, scale 0 to 100): 100
- Plant response rating, Nightshade (Nightshade [10]; Rate 125 g/ha; scale 0 to 100, 0 no effect, 100 complete control): 100
- Plant response rating, Nightshade (Nightshade [10]; Rate 250 g/ha, scale 0 to 100, 0 no effect, 100 complete control): 100
- Plant response rating, Corn (corn (Zea mays) [11]; [15]): 0
- Plant response rating, Corn (corn (Zea mays) [11]; [17]): 0
- Plant response rating (0 to 100), Corn (corn (Zea mays) [11]; preemergence, Rate 500 g/ha): 60
- Plant response rating, Corn (corn (Zea mays) [11]; [18]): 20
- Plant response rating, Johnsongrass [12, 15]: 80
- Plant response rating, Johnsongrass [12, 17]: 20
- Plant response rating (0 to 100), Johnsongrass ([12]; preemergence, Rate 500 g/ha): 100
- Plant response rating, Johnsongrass [12, 18]: 100
- Plant response rating, Pigweed [13, 15]: 100
- Plant response rating, Pigweed [13, 17]: 100
- Plant response rating (0 to 100), Pigweed ([13]; preemergence, Rate 500 g/ha): 70
- Plant response rating, Pigweed [13, 18]: 50
- Plant response rating, Sunflower (Sunflower; Rate 250 g/ha): 100
- Plant response rating (0 to 100), Nightshade (Nightshade [14]; Rate 500 g/ha): 100

Compound: O=C1C(n2ccc(C3CC3)n2)OCN1c1cccc(C(F)(F)F)c1 (centres unmarked) [Compound 28]
- Ducksalad plant response rating ([1]; Rate 250 g/ha): 70
- Ducksalad plant response rating ([1]; Rate 500 g/ha): 100
- Plant response rating, Ducksalad ([1]; Rate 62 g/ha): 0
- Plant response rating, Ducksalad ([1]; Rate 125 g/ha): 0
- Barnyardgrass plant response rating ([2]; Rate 250 g/ha): 40
- Barnyardgrass plant response rating ([2]; Rate 500 g/ha): 70
- Plant response rating, Barnyardgrass ([2]; Rate 62 g/ha): 0
- Plant response rating, Barnyardgrass ([2]; Rate 125 g/ha): 0
- Rice plant response rating (rice (Oryza saliva); Rate 250 g/ha): 20
- Rice plant response rating (rice (Oryza saliva); Rate 500 g/ha): 20
- Plant response rating, Rice (rice (Oryza saliva); Rate 62 g/ha): 0
- Plant response rating, Rice (rice (Oryza saliva); Rate 125 g/ha): 20
- Flatsedge plant response rating ([3]; Rate 250 g/ha): 100
- Flatsedge plant response rating ([3]; Rate 500 g/ha): 100
- Plant response rating, Flatsedge ([3]; Rate 62 g/ha): 80
- Plant response rating, Flatsedge ([3]; Rate 125 g/ha): 80
- Plant response rating, Wheat [4, 19]: 0
- Plant response rating, Wheat [4, 16]: 0
- Plant response rating, Barnyardgrass [5, 19]: 0
- Plant response rating, Barnyardgrass [5, 16]: 60
- Plant response rating, Wild Oat (wild oat (Avena fatua); [19]): 0
- Plant response rating, Wild Oat (wild oat (Avena fatua); [16]): 0
- Plant response rating, Corn (corn (Zea mays) [6]; [19]): 0
- Plant response rating, Corn (corn (Zea mays) [6]; [16]): 0
- Plant response rating, Cupgrass, Woolly [7, 20]: 50
- Plant response rating, Cupgrass, Woolly [7, 21]: 30
- Plant response rating (0 to 100), Cupgrass, Woolly ([7]; preemergence, Rate 250 g/ha): 100
- Plant response rating, Cupgrass, Woolly [7, 22]: 70
- Plant response rating, Nutsedge [8, 20]: 50
- Plant response rating, Nutsedge [8, 21]: 50
- Plant response rating (0 to 100), Nutsedge ([8]; preemergence, Rate 250 g/ha): 50
- Plant response rating, Nutsedge [8, 22]: 50
- Plant response rating, Kochia (kochia (Kochia scoparia); [20]): 40
- Plant response rating, Kochia (kochia (Kochia scoparia); [21]): 0
- Plant response rating (0 to 100), Kochia (kochia (Kochia scoparia); preemergence, Rate 250 g/ha): 100
- Plant response rating, Kochia (kochia (Kochia scoparia); [22]): 100
- Plant response rating, Soybean (soybean (Glycine max); [20]): 0
- Plant response rating, Soybean (soybean (Glycine max); [21]): 0
- Plant response rating (0 to 100), Soybean (soybean (Glycine max); preemergence, Rate 250 g/ha): 40
- Plant response rating, Soybean (soybean (Glycine max); [22]): 40
- Plant response rating, Lambsquarters [9, 20]: 100
- Plant response rating, Lambsquarters [9, 21]: 100
- Plant response rating (0 to 100), Lambsquarters ([9]; preemergence, Rate 250 g/ha): 100
- Plant response rating, Lambsquarters [9, 22]: 100
- Plant response rating, Nightshade (Nightshade [10]; Rate 31 g/ha, scale 0 to 100): 0
- Plant response rating, Nightshade (Nightshade [10]; Rate 62 g/ha; scale 0 to 100, 0 no effect, 100 complete control): 0
- Plant response rating, Nightshade (Nightshade [10]; [15]): 70
- Plant response rating, Corn (corn (Zea mays) [11]; [20]): 0
- Plant response rating, Corn (corn (Zea mays) [11]; [21]): 0
- Plant response rating (0 to 100), Corn (corn (Zea mays) [11]; preemergence, Rate 250 g/ha): 30
- Plant response rating, Corn (corn (Zea mays) [11]; [22]): 30
- Plant response rating, Johnsongrass [12, 20]: 50
- Plant response rating, Johnsongrass [12, 21]: 0
- Plant response rating (0 to 100), Johnsongrass ([12]; preemergence, Rate 250 g/ha): 70
- Plant response rating, Johnsongrass [12, 22]: 70
- Plant response rating, Pigweed [13, 20]: 70
- Plant response rating, Pigweed [13, 21]: 70
- Plant response rating (0 to 100), Pigweed ([13]; preemergence, Rate 250 g/ha): 50
- Plant response rating, Pigweed [13, 22]: 100
- Plant response rating, Sunflower (Sunflower; Rate 125 g/ha): 40
- Plant response rating (0 to 100), Nightshade (Nightshade [14]; Rate 250 g/ha): 90
